Experimental data: ChEMBL document CHEMBL3526001, “Attenuation of intestinal absorption by major efflux transporters: quantitative tools and strategies using a Caco-2 model” (Drug Metab Dispos, 2011)

Experiments:
Homo sapiens = species: Homo sapiens; details: in vivo
Description: Fraction absorbed in human

in vitro [1] = details: human, Caco-2
P-gp = assay: in vitro; details: human, Caco-2
in vitro [2] = details: human, Caco-2; remark: listed apart in the source
Intestine = assay: Ratio of intestine AUC in po dosed mdr1 knock out mouse to intestine AUC in po dosed wild type mouse; assay type: ADME, organism-based; details: in vivo
clinical = details: human, in vivo
Description: Fraction absorbed in human

in vitro [3] = details: human, Caco-2; remark: listed apart in the source
MDCK [4] = assay: Efflux ratio of permeability from basolateral to apical over apical to basolateral side of MDCK cells expressing MDR1; assay type: ADME, cell-based, Canis lupus familiaris; details: dog
MDCK [5] = assay: Efflux ratio of permeability from basolateral to apical over apical to basolateral side of MDCK cells expressing BCRP; assay type: ADME, cell-based, Canis lupus familiaris; details: dog

Compound | Fabs (Homo sapiens) [%] | efflux ratio at 2 h, 10 µM (in vitro [1]) | efflux ratio at 2 h, 10 µM (P-gp) | Papp B→A at 2 h, 10 µM (in vitro [2]) [×10⁻⁶ cm/s] | Ratio AUC (Intestine) | Fa (clinical) [%] | Papp A→B at 2 h, 10 µM (in vitro [3]) [×10⁻⁶ cm/s] | Ratio (MDCK [4]) | Ratio (MDCK [5])
IVERMECTIN | 56 | – | – | – | – | – | – | – | –
COc1cc([C@@H]2c3cc4c(cc3[C@@H](O[C@@H]3O[C@@H]5CO[C@@H](C)O[C@H]5[C@H](O)[C@H]3O)[C@H]3COC(=O)[C@H]23)OCO4)cc(OC)c1O [ETOPOSIDE] | – | 4.8 | 1.4 | 3 | 3.3 | 25 | 0.5 | 11 | 9.7
CC[C@]1(O)C[C@@H]2CN(CCc3c([nH]c4ccccc34)[C@@](C(=O)OC)(c3cc4c(cc3OC)N(C)[C@H]3[C@@](O)(C(=O)OC)[C@H](OC(C)=O)[C@]5(CC)C=CCN6CC[C@]43[C@@H]65)C2)C1 [VINBLASTINE] | – | 13.5 | 2 | 11.9 | 0.7 | 5 | 1 | – | 1.8
C[C@H]1O[C@@H](O[C@H]2[C@@H](O)C[C@H](O[C@H]3[C@@H](O)C[C@H](O[C@H]4CC[C@@]5(C)[C@H](CC[C@@H]6[C@@H]5C[C@@H](O)[C@]5(C)[C@@H](C7=CC(=O)OC7)CC[C@]65O)C4)O[C@@H]3C)O[C@@H]2C)C[C@H](O)[C@@H]1O [DIGOXIN] | – | 7.5 | 1 | – | 12 | 68 | – | 27 | 1.3
